“Also recorded” adds a separate entry of the source.
Tests used:
[1] = test system: T cells, B cells, plasma cells and macrophages in allograft kidneys; conditions: 12 weeks after transplantation
Experimental: Recipients with phosphate buffered saline alone were considered as the vehicle control. At 4, 8, 12 and 16 weeks, organs were harvested and divided into two parts, which were fixed in paraffin or snap-frozen in N2 and stored at −80° C. Peripheral blood mononuclear cells (PBMCs) were separated from the rat peripheral blood to be used in flow cytometry.
Paraffin-embedded sections (4 m) were incubated with primary antibodies against anti-phospho-BTK (1:100; Santa Cruz, USA), C4d (1:200, BioLegend, USA) CD3 (1:200, BioLegend, USA), CD4 (1:200, BioLegend, USA), CD8 (1:200, BioLegend, USA), CD19 (1:200, Bioss, China), CD138 (1:100, Abcam) and CD68 (1:100, Abcam) overnight at 4° C. in a humidified chamber. The appropriate isotype-matched IgG was used as the negative control. […] Quantitative analysis of positive cells (T cells, B cells, plasma cell and macrophages) and IgG positive area was analyzed by using Image-Pro Plus (Media Cybernetics, Rockville, MD). Quantitative analysis of C4d positive PTC was performed according to outcomes of two independent pathologists blinded to the experimental design.

[2] = Renal function assessment (blood creatinine and urea nitrogen) after resection of native right kidney; format: in vivo, Lewis rats; conditions: allogeneic recipients, right kidney resected 10 days after transplantation, vs vehicle
Experimental: Concentrations of rat blood creatinine and urea nitrogen were tested by instructions of manufacturer of the kits (JianCheng, China).
(§1) After the resection of right kidney, the blood concentration of creatinine and urea nitrogen continued to deteriorate and reach the summit at 12 weeks after transplantation.

[3] = Long-term survival of allogeneic kidney transplant recipients; format: in vivo, Lewis rats; conditions: right kidney resected 10 days after transplantation, vs vehicle, log-rank P<0.05
Text: as §1

[4] = test system: T cells, B cells and plasma cells in peripheral blood; assay: Flow cytometry of T cells, B cells and plasma cells in rat peripheral blood; format: in vivo; conditions: 8 weeks after kidney transplantation
Experimental: PBMCs were doubly incubated with FITC-conjugated anti-CD45R (2.5 μg/10^6 cells; eBioscience, Thermo Fisher Scientific, USA) and APC-conjugated anti-CD19 (2 μg/10^6 cells; Bioss, China), FITC-conjugated anti-CD45R (2.5 μg/10^6 cells; eBioscience, Thermo Fisher Scientific, USA) and Alexa Fluor 647 (conjugated anti-CD138 (0.1 μg/10^6 cells; Abcam, USA), APC-conjugated anti-CD3 (3 μg/10^6 cells; BioLegend, USA) and FITC-conjugated anti-CD4 (0.5 μg/10^6 cells; BioLegend, USA) as well as APC-conjugated anti-CD3 (3 μg/10^6 cells; BioLegend, USA) and Percp-eFluor710-conjugated anti-CD8 (0.3 μg/10^6 cells; BioLegend, USA), respectively. The percentages of CD45R^+CD19^+B cells, CD45R^−CD138^+ plasma cells, and CD3^+CD4^+ and CD3^+CD8^+ T cells were determined by flow cytometry (BD Accuri C6, BD Biosciences).
In order to investigate the immune state of syngenetic and allogenic rats, flow cytometry was used to test the amounts of T cells, B cells, and plasma cells.

[5] = test system: donor specific alloantibody (DSA); assay: Donor specific alloantibody (DSA) analysis by flow cytometry; format: in vivo, Lewis rats; conditions: allogeneic recipients, vs vehicle
Experimental: (§2) Left kidney transplantation was performed between male F344 and Lewis rats [Vogelbacher R, et al. Nephrology, dialysis, transplantation: official publication of the European Dialysis and Transplant Association—European Renal Association. 2010; 25: 3764-73.]. The average time of cold ischemia time and warm ischemia time was 25 and 40 minutes, respectively. In order to allow the production of alloantibodies, no immunosuppressive agents were used within the first 2 weeks after kidney transplantation.
Spleen lymphocytes of normal F344 rats were extracted using lymphocyte separation medium. Serum samples of allogeneic rats were incubated with spleen lymphocytes at room temperature for 30 minutes. Spleen lymphocytes were washed for three times and then incubated with a fluorescein isothiocyanate (FITC)-labeled anti-rat IgG antibody (BD Biosciences) at room temperature for 30 min. Mean fluorescence intensity (MFI) was determined in order to assess DSA levels by flow cytometry (Beckman DxFLEX, Beckman, Brea, CA) [Zhao D, et al. American journal of transplantation: official journal of the American Society of Transplantation and the American Society of Transplant Surgeons. 2018; 18: 1083-95; Liao T, et al. Frontiers in immunology. […]

renal allografts = assay: Histological examination of renal allografts (H&E, PAS, Masson staining) for severity of CAMR; format: in vivo, Lewis rats
Experimental: Left kidney transplantation was performed between male F344 and Lewis rats [Vogelbacher R, et al. Nephrology, dialysis, transplantation: official publication of the European Dialysis and Transplant Association—European Renal Association. 2010; 25: 3764-73.]. […] In order to allow the production of alloantibodies, no immunosuppressive agents were used within the first 2 weeks after kidney transplantation. […] Histological analysis was performed by using H&E, PAS and Masson staining. H&E, PAS and Masson trichome staining were performed as detailed elsewhere[Wang Z, et al. Journal of cellular and molecular medicine. 2017; 21: 2359-69.], which was used to evaluate the severity of CAMR. The diagnostic criteria of CAMR was according to Banff 2017 criteria. Characteristics of CAMR were defined as arterial intimal fibrosis, positive C4d staining in PTC and DSA. Measurement of arteriosclerosis caused by intimal fibrosis was performed for the areas surrounded by the luminal surface and internal elastic lamina of each vessel. The area determined by the internal elastic lamina subtraction of the internal elastic lamina to the luminal area was considered as the intimal area. Quantitative analysis the morphometric change of the kidney sections was performed according to results of two pathologists blinded to the experimental design independently.

[6] = test system: TNF-α, TGF-β, IL-17A, IL-35, IL-10; assay: ELISA of rat serum cytokines; format: in vivo; conditions: 12 weeks after kidney transplantation, allogeneic recipients vs vehicle
Experimental: The levels of rat serum TNF-α, TGF-β, IL-17A, IL-35, IL-10 were quantified by rat TNF-α ELISA kit (MUTISCIENCES; China), rat TGF-β ELISA kit (MUTISCIENCES; China), rat IL-35 ELISA kit (MUTISCIENCES; China), rat IL-17A ELISA kit (MUTISCIENCES; China) and rat IL-10 ELISA kit (MUTISCIENCES; China), respectively. The assays were performed as described in the manufacturer's instructions.
At 12 weeks after kidney transplantation, serum isolated from rat peripheral blood was used to detect the concentration of inflammatory cytokines.

[7] = test system: C4d and IgG deposition in allograft kidney; assay: Immunofluorescence staining of C4d and IgG deposition in allograft kidney; format: in vivo, Lewis rats; conditions: 2 mg/kg
Experimental: as §2

[8] = after treatment for 10 weeks, 2 mg/kg, vs allograft kidneys

Structure (SMILES): C=CC(=O)N1CCC([C@@H]2CCNc3c(C(N)=O)c(-c4ccc(Oc5ccccc5)cc4)nn32)CC1 [Compound 1, (S)-7-(1-acryloylpiperidin-4-yl)-2-(4-phenoxyphenyl)-4,5,6,7-tetrahydropyrazolo-[1,5-a]pyrimidine-3-carboxamide]
- infiltration of B cells in allograft kidney [1]: remarkably reduced; also recorded: significantly reduced
- infiltration of T cells in allograft kidney [1]: remarkably reduced; also recorded: significantly reduced
- infiltration of macrophages in allograft kidney [1]: remarkably reduced; also recorded: decrease
- infiltration of plasma cells in allograft kidney [1]: significantly reduced
- blood creatinine [2]: remarkably inhibited the increases; also recorded: relatively low levels
- blood urea nitrogen [2]: remarkably inhibited the increases; also recorded: relatively low levels
- survival rate of allogeneic recipients [3]: significantly increased; also recorded: higher
- effect on T cells (CD3+CD4+, CD3+CD8+) in peripheral blood ([4]; 2 mg/kg): sight effect; also recorded: slight effects
- elevation of CD19+CD45R+ B cells in peripheral blood ([4]; 2 mg/kg for 6 weeks): significantly inhibited increases; also recorded: significantly suppressed
- elevation of plasma cells in peripheral blood ([4]; 2 mg/kg for 6 weeks): significantly inhibited increases; also recorded: significantly suppressed
- production of DSA ([5]; treatment from second week after transplantation, 8, 12, 16 weeks): significantly reduced; also recorded: prevented further production
- level of DSA ([5]; until end of treatment at 16 weeks): relatively low level
- lesion area of interstitial fibrosis (PAS and Masson staining) (renal allografts; [8]): significantly ameliorated
- lesion area of tubular atrophy (PAS and Masson staining) (renal allografts; [8]): significantly ameliorated
- glomerular sclerosis (H&E staining) (renal allografts; allogeneic recipients, 2 mg/kg, vs vehicle): significantly ameliorated
- CAMR (fibrous intimal thickening in arteries, C4d deposition in PTC, increase of DSA) (renal allografts; allograft kidney, treatment from second week after transplantation): significantly alleviated
- secretion of IL-10 (serum) [6]: further increased
- secretion of IL-35 (serum) [6]: further increased
- secretion of TGF-β (serum) [6]: further increased
- serum level of IL-17A [6]: reduce; also recorded: effectively decreased
- serum level of TNF-α [6]: reduce; also recorded: effectively decreased
- deposition of C4d in peritubular capillaries (PTC) ([7]; allograft kidney): dramatically reduced
- positive (lesion) area of IgG ([7]; allograft kidneys after treatment, almost 30% without treatment): less than 10%

Source: US20240139195A1, “METHODS OF TREATING CHRONIC ACTIVE ANTIBODY-MEDIATED REJECTION USING BTK INHIBITORS” (BeiGene Switzerland GmbH, priority 2021, published 2024)
